In data set [1] the test system is ornithine decarboxylase (ODC) activity of extra-orbital lacrimal gland. In words: Ornithine decarboxylase activity of extra-orbital lacrimal gland, subcutaneous continuous administration. Format: in vivo, mouse (male Balb/c). To be noted: mice; for Glandular cell growth Lacrimal gland: ODC activity 10 hours after implantation. The procedure: Male Balb/c mice were used in the test.
The compound A was dissolved in physiological saline to a concentration of 0.625, 1.25, 2.5, 5.0, 10 or 20 mg/200 μl, and filled each pump (Alzet mini-osmotic pump 2001D, 8 μl/h, 1 day; DURECT Corporation) with about 200 μl portions It means, that is, each pump releases at a rate of 0.025, 0.05, 0.1, 0.2, 0.4 or 0.8 mg compound A/h, respectively. About 5 mm of dorsal epidermis of a mouse anesthetized with diethyl ether was incised, the osmotic pump already filled with the compound A was subcutaneously implanted, and then the skin was stitched. Secreted amounts of salivary and tear fluid and sweating were periodically measured from just before the implantation of pump until 32 hours after the administration. The ornithine decarboxylase activity was measured 10 hours after the implantation.
Pilocarpine was dissolved in physiological saline to a concentration of 0.039, 0.078, 0.16 or 0.31 mg/200 μl, or cevimeline to a concentration of 0.16, 0.31, 0.63 or 1.3 mg/200 μl, and filled the osmotic pump (Alzet mini-osmotic pump 2001 D, 8 μl/h, 1 day; DURECT Corporation) with about 200 μl portions. It means, that is, each pump releases at a rate of 0.00156, 0.00312, 0.0064 or 0.0124 mg/h (pilocarpine) or 0.0064, 0.0124, 0.0252 or 0.05 mg/h (cevimeline). About 5 mm of dorsal epidermis of a mouse anesthetized with diethyl ether was incised, the osmotic pump already filled with pilocarpine or cevimeline was subcutaneously implanted, and then the skin was stitched. Secreted amounts of salivary and tear fluid and sweating were periodically measured from just before the implantation of pump until 32 hours after the administration. The ornithine decarboxylase activity was measured 10 hours after the implantation.
Thus, it can be easily analogized that the ODC activity becomes a useful index of cell growth and function of the exocrine gland. Accordingly, the ability of each drug to activate glandular tissue was evaluated by measuring ODC activity of parotid salivary gland and extra-orbital lacrimal gland.
The amount of ^14CO2 formed from L-^14C-ornithine was used as the index of ODC activity.
A mouse anesthetized with diethyl ether was sacrificed by bleeding, and left and right parotid salivary glands and extra-orbital lacrimal glands were isolated. After removing the attached connective tissue and fat, the isolated glandular tissues homogenized in 1.5 ml of a homogenate buffer (25 mM Tris-HCl buffer (pH 7.4) containing 0.1 mM ethylenediaminetetraacetic acid, 0.4 mM pyridoxal phosphate, 5 mM dithiothreitol and 0.1% Brij 35®) using a Potter type homogenizer and then centrifuged at 4° C., 15,000 g for 30 minutes, and the supernatant was used as the enzyme fraction. Reaction of the enzyme and substrate was carried out by adding 100 μl of a substrate solution (the homogenate buffer containing 300 μM DL-ornithine and 5 μCi L-^14C-ornithine) to 900 μl of the enzyme liquid whose protein concentration had been adjusted to 2.5 mg/ml and incubating at 37° C. for 1 hour in a sealed tube, and the reaction was terminated by the addition of 100 μl of 2 M H2SO4. The ^14CO2 generated by the reaction was captured by 150 μl of 1 N NaOH soaked in a glass filter. Radioactivity of the ^14CO2 captured on the glass filter was detected using a liquid scintillation counter. The enzyme activity (pmol ^14CO2/mg protein/hour) was calculated from the measured results.
All of the test results were expressed as fold increases of the reactions of the drug-administered group versus those of the vehicle-administered group, and comparison between the drug-administered groups and the vehicle-administered group was carried out using Dunnett's t-test. P<0.05 was considered significant. Results

A short description of data set [2]: Calculation of plasma concentration under stationary state (Css) and PT ratio from phase I data. On the set-up: species or system human. To be noted: for concentration in plasma under stationary state (Css): calculated from AUC and T1/2 at 20 mg; for PT ratio (Cmax/Cmin): calculated. The text has this:
As described in the above, in order to increase secretion of salivary and tear fluid and to obtain effect of salivary gland and lacrimal gland cell growth, more sufficiently than usual, it is desirable to control drug release per unit hour of the compound A from a sustained release pharmaceutical preparation, and essentially, it is ideal to keep its effective concentration in human plasma for a predetermined period of time. The effective concentration of compound A in plasma under stationary state can be calculated using the AUC and disappearing half life obtained in the human clinical test, the aforementioned drug release per unit hour, distribution volume, disappearing rate constant and the like pharmacokinetic parameters.
An example of the method for calculating its concentration in plasma under stationary state (Css) is shown in the following.
They were 86.9, 172, 1380 and 2758 ng/ml. Though there is a possibility that it varies depending on the influences of specific difference, individual difference and the like various factors, when an example is cited, effective concentration of the compound A in plasma is 35 ng/ml in a lower case, based on the aforementioned calculation result and from the aforementioned valued calculated from Tables 7 and 8. This is preferably 50 ng/ml, more preferably 87 ng/ml, and further more preferably 170 ng/ml.
In addition, it is desirable to control a PT ratio (Cmax/Cmin) which is the ratio of maximum concentration of the compound A in plasma (Cmax) to its minimum concentration in plasma (Cmin). It is possible to calculate the PT ratio from Tmax and T1/2, and the calculation is carried out in the following manner.
This value means that the hour of T1/2 passed 5.5 times after Tmax, and (½)^5.5=1/45. Thus, the PT ratio becomes 45.
Also, when supposed as twice a day administration, (12−2)/4=2.5. In the same manner as in the above, (½)^2.5=1/5.7. Thus, the PT ratio is 5.7. In addition, when the same calculation is carried out based on the minimum value 3.4 h of T1/2 (showing the effect without perspiration),

Data set [3] has as its system healthy male adult volunteers. In words: Phase I study, single oral administration: sweating. Format: in vivo, human. Particulars: for Sweating (number of subjects with the symptom): healthy male adult volunteers, 6 subjects. The procedure: The compound A was orally administered once to healthy male adult volunteers, and saliva secretion action and pharmacokinetics were evaluated.
Drug administration to the volunteers was carried out by a blind method.
In order to observe the volunteers carefully, saliva quantity, sweating and pharmacokinetics (concentrations of unchanged compound A in plasma and urine) were periodically measured.

With `CC1OC2(CS1)CN1CCC2CC1` (stereo not shown) [cevimeline], the figures for the “Glandular cell growth Lacrimal gland” value in data set [1] (s.c. osmotic pump 0.63 mg (0.0252 mg/h)) and in data set [1] (s.c. osmotic pump 1.25 (0.05 mg/h)) were 1.4 ± 0.28 fold increase vs. the solvent group and 1.3 ± 0.70 fold increase vs. the solvent group, respectively.
As for `C=C1CC2(CCN(C)CC2)O[C@H]1C` [compound A, (−)-(S)-2,8-dimethyl-3-methylene-1-oxa-8-azaspiro[4.5]decane], the “concentration in plasma under stationary state (Css)” value was 86.9 ng/mL in data set [2] (release rate R=4.2 mg/h), 172 ng/mL in data set [2] (release rate R=8.3 mg/h), 1380 ng/mL in data set [2] (release rate R=66.7 mg/h) and 2758 ng/mL in data set [2] (release rate R=133.3 mg/h). Besides, the “PT ratio (Cmax/Cmin)” value is 90.5 in data set [2] (once a day administration, T1/2 3.4 h); 45 in data set [2] (once a day administration, Tmax 2, T1/2 4); 7.5 in data set [2] (twice a day administration, T1/2 3.4 h); 5.7 in data set [2] (twice a day administration, Tmax 2, T1/2 4). The “Glandular cell growth Lacrimal gland” value in data set [1] (s.c. osmotic pump 1.25 mg (0.05 mg/h)) is 3.3 ± 1.2 fold increase vs. the vehicle group; in data set [1] (s.c. osmotic pump 2.5 mg (0.1 mg/h)), 6.7 ± 0.90 fold increase vs. the vehicle group; in data set [1] (s.c. osmotic pump 5 mg (0.2 mg/h)) it was 9.2 ± 1.4 fold increase vs. the vehicle group; in data set [1] (s.c. osmotic pump 10 mg (0.4 mg/h)) it was 7.1 ± 1.2 fold increase vs. the vehicle group. Besides, the “Sweating (number of subjects with the symptom)” value in data set [3] (single oral 5 mg) is 0; in data set [3] (single oral 10 mg), 1; in data set [3] (single oral 20 mg), 0; in data set [3] (single oral 40 mg), 0; in data set [3] (single oral 60 mg), 5. The “dose at which a side effect was found” value in data set [3] (human clinical test) came out at 60 mg/individual. The “dose at which a side effect was not found” value in data set [3] (human clinical test) is listed as 40 mg/individual. The “maximum dose (single administration) by which sweating was not observed but the beneficial effect was observed” value in data set [3] (phase I study, oral administration) was found to be 40 mg.
Take `CC[C@@H]1C(=O)OC[C@@H]1Cc1cncn1C` [pilocarpine]: the “dose at which ODC activity increasing action of lacrimal gland cell was observed” value in data set [1] (s.c. continuous administration) worked out at 0.31 mg. Also, the entries for the “Glandular cell growth Lacrimal gland” value in data set [1] (s.c. osmotic pump 0.16 mg (0.0064 mg/h)) and in data set [1] (s.c. osmotic pump 0.31 mg (0.0124 mg/h)) were 1.4 ± 0.33 fold increase vs. vehicle group and 2.0 ± 0.28 fold increase vs. vehicle group, respectively.

The values are drawn from patent publication US20080131511A1, “Pharmaceutical Composition for Treatment of Tear and Salivary Fluid Drying” (Astellas Pharma, Inc., priority 2004, published 2008).
